According to patent US20020111274A1, “1-alkyl-3-[1-(substituted phenyl) benzotriazol-6-yl] uracils” (BASF Aktiengesellschaft, priority 2000, published 2002):

Columns and labels:
Design in all cases: scale not given here
ABUTH Velvetleaf [1] = assay: Postemergence herbicidal evaluation, ABUTH; type: in vivo, Abutilon theophrasti, Medic.; conditions: postemergence spray, rated about two-three weeks after treatment
In short: (§1)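 Seedlings grown about two weeks were sprayed with compound in 80/20 acetone/water containing 1.0% methylated seed oil, at the equivalent of about 0.006 to 0.400 kg/ha, through a nozzle at 40 psi. Plants were kept in the greenhouse and rated visually about two to three weeks after treatment.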

AMBEL Ragweed, Common [2] = assay: Postemergence herbicidal evaluation, AMBEL; type: in vivo, Ambrosia artemisifolia, L.; conditions: postemergence spray, rated about two-three weeks after treatment
In short: as §1

CASOB Sicklepod [3] = assay: Postemergence herbicidal evaluation, CASOB; type: in vivo, Cassia obtusifolia, L.; conditions: postemergence spray, rated about two-three weeks after treatment
In short: as §1

[4] = test system: CHEAL Lambsquarters, Common; assay: Postemergence herbicidal evaluation, CHEAL; type: in vivo, Chenopodium album, L.; conditions: postemergence spray, rated about two-three weeks after treatment
In short: as §1

ECHOG Barnyardgrass [5] = assay: Postemergence herbicidal evaluation, ECHOG; type: in vivo, Echinochloa crus-galli, (L.) Beau; conditions: postemergence spray, rated about two-three weeks after treatment
In short: as §1

GALAP Galium [6] = assay: Postemergence herbicidal evaluation, GALAP; type: in vivo, Galium aparine; conditions: postemergence spray, rated about two-three weeks after treatment
In short: as §1

[7] = test system: IPOHE Morningglory, Ivyleaf; assay: Postemergence herbicidal evaluation, IPOHE; type: in vivo, Ipomoea hederacea, (L.) Jacq.; conditions: postemergence spray, rated about two-three weeks after treatment
In short: as §1

SETVI Foxtail, Green [8] = assay: Postemergence herbicidal evaluation, SETVI; type: in vivo, Setaria viridis, (L.) Beau; conditions: postemergence spray, rated about two-three weeks after treatment
In short: as §1

GLXMAW Soybean, Williams [9] = assay: Postemergence herbicidal evaluation, GLXMAW; type: in vivo, Glycine max, (L.) Merr. cv Williams; conditions: postemergence spray, rated about two-three weeks after treatment
In short: as §1

[10] = test system: TRZAWR Wheat, Winter, cv Riband; assay: Postemergence herbicidal evaluation, TRZAWR; type: in vivo, Triticum aestivum; conditions: postemergence spray, rated about two-three weeks after treatment
In short: as §1

ORYSAT Rice, Tebonnet [11] = assay: Postemergence herbicidal evaluation, ORYSAT; type: in vivo, Oryza sativa, (L.); conditions: postemergence spray, rated about two-three weeks after treatment
In short: as §1

ZEAMX Corn, Field [12] = assay: Postemergence herbicidal evaluation, ZEAMX; type: in vivo, Zea mays, L. (Sammel-Bezeichnung); conditions: postemergence spray, rated about two-three weeks after treatment
In short: as §1

ABUTH Velvetleaf [13] = assay: Preemergence herbicidal evaluation, ABUTH; type: in vivo, Abutilon theophrasti, Medic.; conditions: preemergence
In short: (§2)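 First, seed is blended with potting soil and sown over roughly an inch of soil per cup. Next, the surface is sprayed with an aqueous acetone solution delivering about 0.013–0.800 kg/ha. Finally, cups are grown in the greenhouse and rated after 4–5 weeks.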

AMBEL Ragweed, Common [14] = assay: Preemergence herbicidal evaluation, AMBEL; type: in vivo, Ambrosia artemisifolia, L.; conditions: preemergence
In short: as §2

CASOB Sicklepod [15] = assay: Preemergence herbicidal evaluation, CASOB; type: in vivo, Cassia obtusifolia, L.; conditions: preemergence
In short: as §2

[16] = test system: CHEAL Lambsquarters, Common; assay: Preemergence herbicidal evaluation, CHEAL; type: in vivo, Chenopodium album, L.; conditions: preemergence
In short: as §2

ECHOG Barnyardgrass [17] = assay: Preemergence herbicidal evaluation, ECHOG; type: in vivo, Echinochloa crus-galli, (L.) Beau; conditions: preemergence
In short: as §2

GALAP Galium [18] = assay: Preemergence herbicidal evaluation, GALAP; type: in vivo, Galium aparine; conditions: preemergence
In short: as §2

[19] = test system: IPOHE Morningglory, Ivyleaf; assay: Preemergence herbicidal evaluation, IPOHE; type: in vivo, Ipomoea hederacea, (L.) Jacq.; conditions: preemergence
In short: as §2

SETVI Foxtail, Green [20] = assay: Preemergence herbicidal evaluation, SETVI; type: in vivo, Setaria viridis, (L.) Beau; conditions: preemergence
In short: as §2

GLXMAW Soybean, Williams [21] = assay: Preemergence herbicidal evaluation, GLXMAW; type: in vivo, Glycine max, (L.) Merr. cv Williams; conditions: preemergence
In short: as §2

[22] = test system: TRZAWR Wheat, Winter, cv Riband; assay: Preemergence herbicidal evaluation, TRZAWR; type: in vivo, Triticum aestivum; conditions: preemergence
In short: as §2

ORYSAT Rice, Tebonnet [23] = assay: Preemergence herbicidal evaluation, ORYSAT; type: in vivo, Oryza sativa, (L.); conditions: preemergence
In short: as §2

ZEAMX Corn, Field [24] = assay: Preemergence herbicidal evaluation, ZEAMX; type: in vivo, Zea mays, L. (Sammel-Bezeichnung); conditions: preemergence
In short: as §2

COCc1ccccc1-n1nnc2cc(F)c(-n3c(=O)cc(C(F)(F)F)n(C)c3=O)cc21 [Example 26]
Postemergence herbicidal rating ABUTH (ABUTH Velvetleaf [1]; 0.008 kg/ha): 9.0 | Postemergence herbicidal rating ABUTH (ABUTH Velvetleaf [1]; 0.016 kg/ha): 9.0 | Postemergence herbicidal rating ABUTH (ABUTH Velvetleaf [1]; 0.032 kg/ha): 9.0 | Postemergence herbicidal rating ABUTH (ABUTH Velvetleaf [1]; 0.062 kg/ha): 9.0 | Postemergence herbicidal rating AMBEL (AMBEL Ragweed, Common [2]; 0.008 kg/ha): 4.0 | Postemergence herbicidal rating AMBEL (AMBEL Ragweed, Common [2]; 0.016 kg/ha): 6.0 | Postemergence herbicidal rating AMBEL (AMBEL Ragweed, Common [2]; 0.032 kg/ha): 7.0 | Postemergence herbicidal rating AMBEL (AMBEL Ragweed, Common [2]; 0.062 kg/ha): 9.0 | Postemergence herbicidal rating CASOB (CASOB Sicklepod [3]; 0.008 kg/ha): 1.0 | Postemergence herbicidal rating CASOB (CASOB Sicklepod [3]; 0.016 kg/ha): 2.0 | Postemergence herbicidal rating CASOB (CASOB Sicklepod [3]; 0.032 kg/ha): 2.0 | Postemergence herbicidal rating CASOB (CASOB Sicklepod [3]; 0.062 kg/ha): 4.0 | Postemergence herbicidal rating CHEAL ([4]; 0.008 kg/ha): 2.0 | Postemergence herbicidal rating CHEAL ([4]; 0.016 kg/ha): 7.0 | Postemergence herbicidal rating CHEAL ([4]; 0.032 kg/ha): 9.0 | Postemergence herbicidal rating ECHCG (ECHOG Barnyardgrass [5]; 0.008 kg/ha): 1.0 | Postemergence herbicidal rating ECHCG (ECHOG Barnyardgrass [5]; 0.016 kg/ha): 1.0 | Postemergence herbicidal rating ECHCG (ECHOG Barnyardgrass [5]; 0.032 kg/ha): 1.0 | Postemergence herbicidal rating ECHCG (ECHOG Barnyardgrass [5]; 0.062 kg/ha): 3.0 | Postemergence herbicidal rating GALAP (GALAP Galium [6]; 0.008 kg/ha): 1.0 | Postemergence herbicidal rating GALAP (GALAP Galium [6]; 0.016 kg/ha): 1.0 | Postemergence herbicidal rating GALAP (GALAP Galium [6]; 0.032 kg/ha): 2.0 | Postemergence herbicidal rating GALAP (GALAP Galium [6]; 0.062 kg/ha): 6.0 | Postemergence herbicidal rating IPOHE ([7]; 0.008 kg/ha): 4.0 | Postemergence herbicidal rating IPOHE ([7]; 0.016 kg/ha): 9.0 | Postemergence herbicidal rating IPOHE ([7]; 0.032 kg/ha): 9.0 | Postemergence herbicidal rating IPOHE ([7]; 0.062 kg/ha): 9.0 | Postemergence herbicidal rating SETVI (SETVI Foxtail, Green [8]; 0.008 kg/ha): 1.0 | Postemergence herbicidal rating SETVI (SETVI Foxtail, Green [8]; 0.016 kg/ha): 5.0 | Postemergence herbicidal rating SETVI (SETVI Foxtail, Green [8]; 0.032 kg/ha): 2.0 | Postemergence herbicidal rating SETVI (SETVI Foxtail, Green [8]; 0.062 kg/ha): 5.0 | Postemergence herbicidal rating GLXMAW (GLXMAW Soybean, Williams [9]; 0.008 kg/ha): 4.5 | Postemergence herbicidal rating GLXMAW (GLXMAW Soybean, Williams [9]; 0.016 kg/ha): 5.0 | Postemergence herbicidal rating GLXMAW (GLXMAW Soybean, Williams [9]; 0.032 kg/ha): 5.5 | Postemergence herbicidal rating GLXMAW (GLXMAW Soybean, Williams [9]; 0.062 kg/ha): 9.0 | Postemergence herbicidal rating TRZAWR ([10]; 0.008 kg/ha): 2.0 | Postemergence herbicidal rating TRZAWR ([10]; 0.016 kg/ha): 2.5 | Postemergence herbicidal rating TRZAWR ([10]; 0.032 kg/ha): 3.0 | Postemergence herbicidal rating TRZAWR ([10]; 0.062 kg/ha): 4.0 | Postemergence herbicidal rating ORYSAT (ORYSAT Rice, Tebonnet [11]; 0.008 kg/ha): 2.0 | Postemergence herbicidal rating ORYSAT (ORYSAT Rice, Tebonnet [11]; 0.016 kg/ha): 2.0 | Postemergence herbicidal rating ORYSAT (ORYSAT Rice, Tebonnet [11]; 0.032 kg/ha): 3.0 | Postemergence herbicidal rating ORYSAT (ORYSAT Rice, Tebonnet [11]; 0.062 kg/ha): 4.5 | Postemergence herbicidal rating ZEAMX (ZEAMX Corn, Field [12]; 0.008 kg/ha): 3.5 | Postemergence herbicidal rating ZEAMX (ZEAMX Corn, Field [12]; 0.016 kg/ha): 4.0 | Postemergence herbicidal rating ZEAMX (ZEAMX Corn, Field [12]; 0.032 kg/ha): 4.0 | Postemergence herbicidal rating ZEAMX (ZEAMX Corn, Field [12]; 0.062 kg/ha): 6.5 | ABUTH herbicidal rating (ABUTH Velvetleaf [13]; rate 0.016 kg/ha): 9.0 | ABUTH herbicidal rating (ABUTH Velvetleaf [13]; rate 0.032 kg/ha): 9.0 | ABUTH herbicidal rating (ABUTH Velvetleaf [13]; rate 0.062 kg/ha): 9.0 | ABUTH herbicidal rating (ABUTH Velvetleaf [13]; rate 0.125 kg/ha): 9.0 | AMBEL herbicidal rating (AMBEL Ragweed, Common [14]; rate 0.016 kg/ha): 2.0 | AMBEL herbicidal rating (AMBEL Ragweed, Common [14]; rate 0.032 kg/ha): 7.0 | AMBEL herbicidal rating (AMBEL Ragweed, Common [14]; rate 0.062 kg/ha): 7.0 | AMBEL herbicidal rating (AMBEL Ragweed, Common [14]; rate 0.125 kg/ha): 9.0 | CASOB herbicidal rating (CASOB Sicklepod [15]; rate 0.016 kg/ha): 0.0 | CASOB herbicidal rating (CASOB Sicklepod [15]; rate 0.032 kg/ha): 0.0 | CASOB herbicidal rating (CASOB Sicklepod [15]; rate 0.062 kg/ha): 7.0 | CASOB herbicidal rating (CASOB Sicklepod [15]; rate 0.125 kg/ha): 7.0 | CHEAL herbicidal rating ([16]; rate 0.032 kg/ha): 7.0 | CHEAL herbicidal rating ([16]; rate 0.062 kg/ha): 9.0 | CHEAL herbicidal rating ([16]; rate 0.125 kg/ha): 9.0 | ECHCG herbicidal rating (ECHOG Barnyardgrass [17]; rate 0.016 kg/ha): 1.0 | ECHCG herbicidal rating (ECHOG Barnyardgrass [17]; rate 0.032 kg/ha): 6.0 | ECHCG herbicidal rating (ECHOG Barnyardgrass [17]; rate 0.062 kg/ha): 7.0 | ECHCG herbicidal rating (ECHOG Barnyardgrass [17]; rate 0.125 kg/ha): 9.0 | GALAP herbicidal rating (GALAP Galium [18]; rate 0.016 kg/ha): 0.0 | GALAP herbicidal rating (GALAP Galium [18]; rate 0.032 kg/ha): 0.0 | GALAP herbicidal rating (GALAP Galium [18]; rate 0.062 kg/ha): 7.0 | GALAP herbicidal rating (GALAP Galium [18]; rate 0.125 kg/ha): 8.0 | IPOHE herbicidal rating ([19]; rate 0.016 kg/ha): 0.0 | IPOHE herbicidal rating ([19]; rate 0.032 kg/ha): 9.0 | IPOHE herbicidal rating ([19]; rate 0.062 kg/ha): 6.0 | IPOHE herbicidal rating ([19]; rate 0.125 kg/ha): 9.0 | SETVI herbicidal rating (SETVI Foxtail, Green [20]; rate 0.016 kg/ha): 2.0 | SETVI herbicidal rating (SETVI Foxtail, Green [20]; rate 0.032 kg/ha): 9.0 | SETVI herbicidal rating (SETVI Foxtail, Green [20]; rate 0.062 kg/ha): 9.0 | SETVI herbicidal rating (SETVI Foxtail, Green [20]; rate 0.125 kg/ha): 9.0 | GLXMAW herbicidal rating (GLXMAW Soybean, Williams [21]; rate 0.016 kg/ha): 1.0 | GLXMAW herbicidal rating (GLXMAW Soybean, Williams [21]; rate 0.032 kg/ha): 2.0 | GLXMAW herbicidal rating (GLXMAW Soybean, Williams [21]; rate 0.062 kg/ha): 9.0 | GLXMAW herbicidal rating (GLXMAW Soybean, Williams [21]; rate 0.125 kg/ha): 5.0 | TRZAWR herbicidal rating ([22]; rate 0.016 kg/ha): 0.0 | TRZAWR herbicidal rating ([22]; rate 0.062 kg/ha): 6.0 | TRZAWR herbicidal rating ([22]; rate 0.125 kg/ha): 8.0 | ORYSAT herbicidal rating (ORYSAT Rice, Tebonnet [23]; rate 0.016 kg/ha): 0.0 | ORYSAT herbicidal rating (ORYSAT Rice, Tebonnet [23]; rate 0.032 kg/ha): 3.0 | ORYSAT herbicidal rating (ORYSAT Rice, Tebonnet [23]; rate 0.062 kg/ha): 5.0 | ORYSAT herbicidal rating (ORYSAT Rice, Tebonnet [23]; rate 0.125 kg/ha): 7.0 | ZEAMX herbicidal rating (ZEAMX Corn, Field [24]; rate 0.016 kg/ha): 1.0 | ZEAMX herbicidal rating (ZEAMX Corn, Field [24]; rate 0.032 kg/ha): 4.0 | ZEAMX herbicidal rating (ZEAMX Corn, Field [24]; rate 0.062 kg/ha): 7.0 | ZEAMX herbicidal rating (ZEAMX Corn, Field [24]; rate 0.125 kg/ha): 7.0
